Assay results reported in patent US20230085307A1, “PYRIDAZINONE COMPOUND AND HERBICIDE” (NISSAN CHEMICAL CORPORATION, priority 2019, published 2023).

Experiments:
late watergrass [1] = assay: Test Example 1: herbicidal activity, application before weed generation under submerged conditions (Table 16, symbol A); assay type: in vivo, late watergrass (Echinochloa oryzicola); settings: amount of applied herbicide 320 g/ha
Procedure, shortened: (§1)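 Alluvial soil was flooded to 4 cm depth, weed seeds were sown mixed and 2.5-leaf rice seedlings were transplanted. On sowing day, the compound's emulsion, diluted in water to a set dose, was applied to the water surface. Plants grew at 25–30 °C and were scored 0–5 after three weeks.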

Japanese bulrush [2] = assay: Test Example 1: herbicidal activity, application before weed generation under submerged conditions (Table 16, symbol B); assay type: in vivo, Japanese bulrush (Schoenoplectus juncoides); settings: amount of applied herbicide 320 g/ha
Procedure, shortened: as §1

oval-leafed pondweed [3] = assay: Test Example 1: herbicidal activity, application before weed generation under submerged conditions (Table 16, symbol C); assay type: in vivo, oval-leafed pondweed (Monochoria vaginalis); settings: amount of applied herbicide 320 g/ha
Procedure, shortened: as §1

late watergrass [4] = assay: Test Example 2: herbicidal activity, application during weed generation under submerged conditions (Table 17, symbol A); assay type: in vivo, late watergrass (Echinochloa oryzicola); settings: AAH 320 g/ha; application during weed generation, submerged conditions
Procedure, shortened: (§2)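 Wagner pot, alluvial soil, 4 cm flood; mixed sowing of all species; greenhouse 25° C.–30° C. Emulsifiable formulation, water-diluted to predetermined dose, applied to paddy water at 1–2 leaf stage. Effect rated at 3 wk using the earlier test's scoring criteria.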

Japanese bulrush [5] = assay: Test Example 2: herbicidal activity, application during weed generation under submerged conditions (Table 17, symbol B); assay type: in vivo, Japanese bulrush (Schoenoplectus juncoides); settings: AAH 320 g/ha; application during weed generation, submerged conditions
Procedure, shortened: as §2

oval-leafed pondweed [6] = assay: Test Example 2: herbicidal activity, application during weed generation under submerged conditions (Table 17, symbol C); assay type: in vivo, oval-leafed pondweed (Monochoria vaginalis); settings: AAH 320 g/ha; application during weed generation, submerged conditions
Procedure, shortened: as §2

southern crabgrass [7] = assay: Test Example 4: herbicidal effect by soil treatment (Table 19, symbol F); assay type: in vivo, southern crabgrass (Digitaria ciliaris); settings: amount of applied herbicide 320 g/ha
Procedure, shortened: (§3)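 Herbicidal effect was rated 3 weeks after treatment, using the scoring criteria of an earlier test. The compound, formulated as an emulsion and diluted in water to a set herbicide amount, had been sprayed uniformly on soil over freshly sown seeds. Growth took place in a greenhouse at 25° C. to 30° C.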

green foxtail [8] = assay: Test Example 4: herbicidal effect by soil treatment (Table 19, symbol G); assay type: in vivo, green foxtail (Setaria viridis); settings: amount of applied herbicide 320 g/ha
Procedure, shortened: as §3

barnyard grass [9] = assay: Test Example 4: herbicidal effect by soil treatment (Table 19, symbol H); assay type: in vivo, barnyard grass (Echinochloa crus-galli); settings: amount of applied herbicide 320 g/ha
Procedure, shortened: as §3

wild oat [10] = assay: Test Example 4: herbicidal effect by soil treatment (Table 19, symbol I); assay type: in vivo, wild oat (Avena fatua); settings: amount of applied herbicide 320 g/ha
Procedure, shortened: as §3

blackgrass [11] = assay: Test Example 4: herbicidal effect by soil treatment (Table 19, symbol J); assay type: in vivo, blackgrass (Alopecurus myosuroides); settings: amount of applied herbicide 320 g/ha
Procedure, shortened: as §3

Italian ryegrass [12] = assay: Test Example 4: herbicidal effect by soil treatment (Table 19, symbol K); assay type: in vivo, Italian ryegrass (Lolium multiflorum); settings: amount of applied herbicide 320 g/ha
Procedure, shortened: as §3

windgrass [13] = assay: Test Example 4: herbicidal effect by soil treatment (Table 19, symbol L); assay type: in vivo, windgrass (Apera spica-venti); settings: amount of applied herbicide 320 g/ha
Procedure, shortened: as §3

velvetleaf [14] = assay: Test Example 4: herbicidal effect by soil treatment (Table 19, symbol M); assay type: in vivo, velvetleaf (Abutilon theophrasti); settings: amount of applied herbicide 320 g/ha
Procedure, shortened: as §3

redroot pigweed [15] = assay: Test Example 4: herbicidal effect by soil treatment (Table 19, symbol N); assay type: in vivo, redroot pigweed (Amaranthus retroflexus); settings: amount of applied herbicide 320 g/ha
Procedure, shortened: as §3

lambsquarters [16] = assay: Test Example 4: herbicidal effect by soil treatment (Table 19, symbol O); assay type: in vivo, lambsquarters (Chenopodium album); settings: amount of applied herbicide 320 g/ha
Procedure, shortened: as §3

chickweed [17] = assay: Test Example 4: herbicidal effect by soil treatment (Table 19, symbol P); assay type: in vivo, common chickweed (Stellaria media); settings: amount of applied herbicide 320 g/ha
Procedure, shortened: as §3

false cleavers [18] = assay: Test Example 4: herbicidal effect by soil treatment (Table 19, symbol Q); assay type: in vivo, false cleavers (Galium spurium); settings: amount of applied herbicide 320 g/ha
Procedure, shortened: as §3

persian speedwell [19] = assay: Test Example 4: herbicidal effect by soil treatment (Table 19, symbol R); assay type: in vivo, Persian speedwell (Veronica persica); settings: amount of applied herbicide 320 g/ha
Procedure, shortened: as §3

southern crabgrass [20] = assay: Test Example 5: herbicidal effect by foliage application, plastic box (Table 20, symbol F); assay type: in vivo, southern crabgrass (Digitaria ciliaris); settings: foliage application, 320 g/ha, three weeks after application
Procedure, shortened: (§4)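 Foliar spray test: emulsion formulation diluted in water to a set application rate, sprayed onto 14-day-old plants raised in diluvial soil at 25° C to 30° C under glass. Both herbicidal effect and crop effect rated visually three weeks later.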

green foxtail [21] = assay: Test Example 5: herbicidal effect by foliage application, plastic box (Table 20, symbol G); assay type: in vivo, green foxtail (Setaria viridis); settings: foliage application, 320 g/ha, three weeks after application
Procedure, shortened: as §4

barnyard grass [22] = assay: Test Example 5: herbicidal effect by foliage application, plastic box (Table 20, symbol H); assay type: in vivo, barnyard grass (Echinochloa crus-galli); settings: foliage application, 320 g/ha, three weeks after application
Procedure, shortened: as §4

wild oat [23] = assay: Test Example 5: herbicidal effect by foliage application, plastic box (Table 20, symbol I); assay type: in vivo, wild oat (Avena fatua); settings: foliage application, 320 g/ha, three weeks after application
Procedure, shortened: as §4

blackgrass [24] = assay: Test Example 5: herbicidal effect by foliage application, plastic box (Table 20, symbol J); assay type: in vivo, blackgrass (Alopecurus myosuroides); settings: foliage application, 320 g/ha, three weeks after application
Procedure, shortened: as §4

Italian ryegrass [25] = assay: Test Example 5: herbicidal effect by foliage application, plastic box (Table 20, symbol K); assay type: in vivo, Italian ryegrass (Lolium multiflorum); settings: foliage application, 320 g/ha, three weeks after application
Procedure, shortened: as §4

windgrass [26] = assay: Test Example 5: herbicidal effect by foliage application, plastic box (Table 20, symbol L); assay type: in vivo, windgrass (Apera spica-venti); settings: foliage application, 320 g/ha, three weeks after application
Procedure, shortened: as §4

velvetleaf [27] = assay: Test Example 5: herbicidal effect by foliage application, plastic box (Table 20, symbol M); assay type: in vivo, velvetleaf (Abutilon theophrasti); settings: foliage application, 320 g/ha, three weeks after application
Procedure, shortened: as §4

redroot pigweed [28] = assay: Test Example 5: herbicidal effect by foliage application, plastic box (Table 20, symbol N); assay type: in vivo, redroot pigweed (Amaranthus retroflexus); settings: foliage application, 320 g/ha, three weeks after application
Procedure, shortened: as §4

lambsquarters [29] = assay: Test Example 5: herbicidal effect by foliage application, plastic box (Table 20, symbol O); assay type: in vivo, lambsquarters (Chenopodium album); settings: foliage application, 320 g/ha, three weeks after application
Procedure, shortened: as §4

chickweed [30] = assay: Test Example 5: herbicidal effect by foliage application, plastic box (Table 20, symbol P); assay type: in vivo, common chickweed (Stellaria media); settings: foliage application, 320 g/ha, three weeks after application
Procedure, shortened: as §4

false cleavers [31] = assay: Test Example 5: herbicidal effect by foliage application, plastic box (Table 20, symbol Q); assay type: in vivo, false cleavers (Galium spurium); settings: foliage application, 320 g/ha, three weeks after application
Procedure, shortened: as §4

persian speedwell [32] = assay: Test Example 5: herbicidal effect by foliage application, plastic box (Table 20, symbol R); assay type: in vivo, Persian speedwell (Veronica persica); settings: foliage application, 320 g/ha, three weeks after application
Procedure, shortened: as §4

## CCCC(=O)Oc1c(C)nn(C)c(=O)c1-c1c(-c2ccc(F)cc2)sc2cc(OC)ccc12 [3-064]
Late watergrass [1]
  Herbicidal effect, A: late watergrass: 0 (Herbicidal rate of 5% or less (almost no effect))
Japanese bulrush [2]
  Herbicidal effect, B: Japanese bulrush: 3 (Herbicidal rate of 40% or more and less than 70%)
oval-leafed pondweed [3]
  Herbicidal effect, C: oval-leafed pondweed: 4 (Herbicidal rate of 70% or more and less than 90%)
Late watergrass [4]
  herbicidal effect rating, A: late watergrass: 0 (Herbicidal rate of 5% or less (almost no effect))
Japanese bulrush [5]
  herbicidal effect rating, B: Japanese bulrush: 1 (Herbicidal rate of 5% or more and less than 20%)
oval-leafed pondweed [6]
  herbicidal effect rating, C: oval-leafed pondweed: 3 (Herbicidal rate of 40% or more and less than 70%)
Southern crabgrass [7]
  F: southern crabgrass, herbicidal effect grade: 0 (Herbicidal rate of 5% or less (almost no effect))
Green foxtail [8]
  G: green foxtail, herbicidal effect grade: 0 (Herbicidal rate of 5% or less (almost no effect))
Barnyard grass [9]
  H: barnyard grass, herbicidal effect grade: 0 (Herbicidal rate of 5% or less (almost no effect))
Wild oat [10]
  I: wild oat, herbicidal effect grade: 0 (Herbicidal rate of 5% or less (almost no effect))
Blackgrass [11]
  J: blackgrass, herbicidal effect grade: 0 (Herbicidal rate of 5% or less (almost no effect))
Italian ryegrass [12]
  K: Italian ryegrass, herbicidal effect grade: 0 (Herbicidal rate of 5% or less (almost no effect))
Windgrass [13]
  L: windgrass, herbicidal effect grade: 0 (Herbicidal rate of 5% or less (almost no effect))
Velvetleaf [14]
  M: velvetleaf, herbicidal effect grade: 0 (Herbicidal rate of 5% or less (almost no effect))
Redroot pigweed [15]
  N: redroot pigweed, herbicidal effect grade: 2 (Herbicidal rate of 20% or more and less than 40%)
Lambsquarters [16]
  O: lambsquarters, herbicidal effect grade: 3 (Herbicidal rate of 40% or more and less than 70%)
Chickweed [17]
  P: chickweed, herbicidal effect grade: 4 (Herbicidal rate of 70% or more and less than 90%)
False cleavers [18]
  Q: false cleavers, herbicidal effect grade: 0 (Herbicidal rate of 5% or less (almost no effect))
Persian speedwell [19]
  R: persian speedwell, herbicidal effect grade: 4 (Herbicidal rate of 70% or more and less than 90%)
Southern crabgrass [20]
  F: southern crabgrass, herbicidal effect grade: 0 (Herbicidal rate of 5% or less (almost no effect))
Green foxtail [21]
  G: green foxtail, herbicidal effect grade: 0 (Herbicidal rate of 5% or less (almost no effect))
Barnyard grass [22]
  H: barnyard grass, herbicidal effect grade: 0 (Herbicidal rate of 5% or less (almost no effect))
Wild oat [23]
  I: wild oat, herbicidal effect grade: 0 (Herbicidal rate of 5% or less (almost no effect))
Blackgrass [24]
  J: blackgrass, herbicidal effect grade: 0 (Herbicidal rate of 5% or less (almost no effect))
Italian ryegrass [25]
  K: Italian ryegrass, herbicidal effect grade: 0 (Herbicidal rate of 5% or less (almost no effect))
Windgrass [26]
  L: windgrass, herbicidal effect grade: 0 (Herbicidal rate of 5% or less (almost no effect))
Velvetleaf [27]
  M: velvetleaf, herbicidal effect grade: 1 (Herbicidal rate of 5% or more and less than 20%)
Redroot pigweed [28]
  N: redroot pigweed, herbicidal effect grade: 0 (Herbicidal rate of 5% or less (almost no effect))
Lambsquarters [29]
  O: lambsquarters, herbicidal effect grade: 2 (Herbicidal rate of 20% or more and less than 40%)
Chickweed [30]
  P: chickweed, herbicidal effect grade: 5 (Herbicidal rate of 90% or more (almost completely withered))
False cleavers [31]
  Q: false cleavers, herbicidal effect grade: 0 (Herbicidal rate of 5% or less (almost no effect))
Persian speedwell [32]
  R: persian speedwell, herbicidal effect grade: 4 (Herbicidal rate of 70% or more and less than 90%)
